# From patent publication US10316050B2, “PT (IV) complexes containing 4,4′-disubstituted-2,2′-bipyridyl and their use in cancer therapy” (THE BOARD OF REGENTS OF THE NEVADA SYSTEM OF HIGHER …, priority 2014, dated 2019)
# Assays:
# [1] = system: cleaved-PARP in A549 cells; assay: Flow cytometry of cleaved-PARP, A549; format: cell-based, human; conditions: A549, 25 μM Pt(IV)-4C or 7.5 μM Pt(IV)-5C for 5 hours, analyzed 12 hours post treatment
# Protocol: FIG. 12 is a series of histograms indicating Pt(IV)-4C and Pt(IV)-5C-induced cleavage of PARP in A549 cells (top panels) and in DU145 cells (bottom). A549 cells were treated for 5 hours with control (left), 25 μM Pt(IV)-4C (center), or 7.5 μM Pt(IV)-5C (right), and analyzed 12 hours post treatment. DU145 cells were treated for 2 hours with control (left), 10 μM Pt(IV)-4C (center), or 2.5 μM Pt(IV)-5C (right), and analyzed seven hours post treatment. Data are representative of three independent experiments.
# Cells (200,000 to 250,000) were seeded in 60 mm dishes and incubated at 37° C. in a humidified, 5% CO2 atmosphere for 2 days to reach ˜50-60% confluence. The cells were treated with the platinum complexes as indicated, the floating cells were collected, and both attached and floating cells were washed 2× with PBS. The cells were resuspended in fresh medium and incubated as indicated. After incubation, both the floating and attached cells were collected and fixed by incubation in 4% formaldehyde for 10 minutes at room temperature. The fixed cells were pelleted and permeabilized by incubation in 500 μL of ice-cold methanol at 4° C. for 10 minutes. The samples were stored at −20° C. until analysis. For analysis, the cells were pelleted and washed 2× with 1% BSA in PBS. […] After washing 2× with 1% BSA, the cells were resuspended in PBS and analyzed on a Becton Dickinson FACS Calibur. […]
# DU145 cells = assay: Hoechst/PI staining, confocal microscopy, DU145; format: cell-based, human
# Protocol: Cells (100,000 to 125,000) were seeded into 35 mm dishes and incubated for 48 hours at 37° C. The cells were treated with control, Pt(IV)-4C, or Pt(IV)-5C, and while in the dark, the cells were washed 2× with 1 mL PBS. After washing, 1 mL of a 2 μg/mL Hoechst 33342 and 10 μg/mL PI solution (in PBS) was added, and the cells were incubated for 15 minutes at room temperature. Images were acquired within 5 minutes with a Nikon A1R confocal laser scanning microscopy system (CLSM) mounted on a Nikon Eclipse Ti. At least three random areas on each dish were imaged.
# Analysis of Hoechst (Ho) and PI staining by confocal microscopy also was performed to detect cell death. PI stains cells with membrane damage, whereas Ho stains both live and apoptotic cells (although apoptotic cells have more intense Ho fluorescence). […] Additionally, unlike A549, the PI positive cells in Pt(IV)-4C treated cells were higher than Pt(IV)-5C treated cells.
# [2] = Solubility in water and culture medium; format: physicochemical; conditions: stock DMSO solution diluted in the culture medium
# Protocol: It should be noted that while the solubility of the Pt(IV) complexes in organic solvents were increased compared to their Pt(II) precursors, they were still poorly soluble in water. Thus, Pt(IV)-1C to Pt(IV)-3C were limited to a highest concentration of 100 μM. […] Testing of Pt(IV)4C therefore was limited to 25 μM.
Compound,fold increase of cleaved-PARP [1],Hoechst and PI staining compared to control (DU145 cells),concentration at which the complex precipitated out of solution [2]
"CC(=O)[O][Pt]([Cl])([Cl])[O]C(C)=O.CCCCCOc1ccnc(-c2cc(OCCCCC)ccn2)c1 [Pt(IV)-5C, [Pt(IV)Cl2(OAc)2(4,4′-dipentoxy-2,2′-bipyridine)]]",~7 fold,more PI positive staining than Ho staining,
"[Pt(IV)Cl2(OAc)2(4,4′-dibutoxy-2,2′-bipyridine)] [Pt(IV)-4C]",~7 fold,,≥ 30 µM
